From patent US6673365B1, “Formulation for treatment of thromboembolism” (priority 1996, dated 2004)

Assay: Bioavailability in vivo in the rat after intraduodenal administration
Protocol: The formulations, A to D, respectively, were tested in vivo in the rat model using intraduodenally catheterized, nonanesthetized animals. Formulations were given as a bolus. Blood samples were withdrawn at certain time points for up to 4 hours after administration of the different formulations. The concentrations of HOOC—CH2—(R)-Cgl-Aze-Pab were analyzed in the plasma and the bioavailabilities calculated from the Area under the curve (AUC) using standard pharmacokinetic methods (Rowland and Tozer, Clinical Pharmacokinetics, concepts and applications, 1980).
The bioavailability increased tenfold to twentyfold when the different formulations mentioned in the invention were used, as compared to controls where only phosphate buffer of pH 8 was used (1). Formulation B was also tested in human healthy subjects using enteric coated capsules for administration directly to the duodenum. The results from the human study also indicate a tenfold increased absorption as compared to a control tablet or solution of the thrombin inhibitor base only.

CCCCCCCC(=O)OCC(O)CO (stereo not shown) [glyceryl mono-octanoate(1-monocaprylin), glyceryl mono-octanoate]
Enhancing effect, glycerides from different sources compared: most efficient enhancing effect
